# Experimental data from US9321762B2, “Quinazoline compounds, method for preparing the same and use thereof” (DEVELOPMENT CENTER FOR BIOTECHNOLOGY, priority 2013, dated 2016).
# pIC50: −log10 of the molar value.
# Molecular target: T1, B-Raf kinase (Homo sapiens, UniProt P15056)
# T1 construct: purchased Upstate Biotechnology
# Test: B-Raf kinase assay ([33P] incorporation into MEK1(K97R))
# Type: biochemical
# Details: class symbols; 8 μM ATP; read-out: IC50 against B-Raf kinase
# Experimental: Inhibition of kinase activity by a test compound disclosed herein was estimated by quantifying the amount of [^33P] incorporation of a substrate in the presence of the test compound. Standard assay conditions were 5 ng of recombinant B-Raf kinase (Upstate Biotechnology) with 500 ng MEK1(K97R) in assay buffer (8 μM ATP, 0.5 μCi [^33P]ATP (specific activity 3000 Ci/mmol, PerkinElmer), 50 mM Tris/HCl (pH7.5), and 1 mM EGTA, 1 mM Na3VO4, 1% 2-mercaptoethanol, 0.1% Brij 35, and 0.2 mg/ml BSA) in a final volume of 25 μL. Reactions were incubated at 30° C. for 30 min and stopped by adding 3% phosphoric acid, harvested onto a 96-well GF/B UniFilter (PerkinElmer) using a unifilter harvester (PerkinElmer), and counted with a TopCount microplate scintillation counter (PerkinElmer). The IC50 values of inhibitors were determined after carrying out assays at 3-fold serially diluted concentrations of each compound in duplication. The results were analyzed using linear regression software (GraphPad Prism 4; GraphPad Software Inc.).
# T1 sequence (P15056 whole entry): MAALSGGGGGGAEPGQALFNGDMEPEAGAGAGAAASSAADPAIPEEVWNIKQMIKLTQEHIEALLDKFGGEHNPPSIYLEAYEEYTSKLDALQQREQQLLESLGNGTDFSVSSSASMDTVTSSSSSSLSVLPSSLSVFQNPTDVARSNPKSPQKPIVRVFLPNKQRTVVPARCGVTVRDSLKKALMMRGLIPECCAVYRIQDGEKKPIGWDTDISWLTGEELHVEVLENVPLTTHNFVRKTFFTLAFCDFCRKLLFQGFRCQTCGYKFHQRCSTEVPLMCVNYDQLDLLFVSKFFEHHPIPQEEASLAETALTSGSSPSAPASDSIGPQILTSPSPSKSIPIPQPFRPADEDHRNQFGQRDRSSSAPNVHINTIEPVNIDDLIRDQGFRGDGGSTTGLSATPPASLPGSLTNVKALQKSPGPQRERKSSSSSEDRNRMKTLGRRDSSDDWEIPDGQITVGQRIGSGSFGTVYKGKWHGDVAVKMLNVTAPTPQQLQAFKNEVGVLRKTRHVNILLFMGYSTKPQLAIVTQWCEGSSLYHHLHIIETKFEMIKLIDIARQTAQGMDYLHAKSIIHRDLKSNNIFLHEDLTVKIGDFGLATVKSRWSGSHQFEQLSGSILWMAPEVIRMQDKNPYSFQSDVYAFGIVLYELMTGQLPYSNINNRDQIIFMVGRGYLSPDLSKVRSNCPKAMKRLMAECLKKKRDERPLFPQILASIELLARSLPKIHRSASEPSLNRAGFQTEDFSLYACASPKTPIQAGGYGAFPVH
row,Structure (SMILES),pIC50
1,"CCCS(=O)(=O)Nc1ccc(F)c(Nc2ncnc3ccc(-c4cccnc4OC)cc23)c1F [compound 23, N-(2,4-difluoro-3-(6-(2-methoxypyridin-3-yl)quinazolin-4-ylamino)phenyl)propane-1-sulfonamide]",5.00 to 6.00
2,"CCS(=O)(=O)Nc1ccc(F)c(Nc2ncnc3ccc(-c4cccnc4F)cc23)c1F [compound 19, N-(2,4-difluoro-3-(6-(2-fluoropyridin-3-yl)quinazolin-4-ylamino)phenyl)ethanesulfonamide]",5.00 to 6.00
3,"CCCS(=O)(=O)Nc1ccc(F)c(Nc2ncnc3cc(OC)c(-c4ccncc4)cc23)c1F [compound 30, N-(2,4-difluoro-3-(7-methoxy-6-(pyridin-4-yl)quinazolin-4-ylamino)phenyl)propane-1-sulfonamide]",5.00 to 6.00
4,"CC(C)S(=O)(=O)Nc1ccc(F)c(Nc2ncnc3ccc(-c4cccnc4F)cc23)c1F [compound 20, N-(2,4-difluoro-3-(6-(2-fluoropyridin-3-yl)quinazolin-4-ylamino)phenyl)propane-2-sulfonamide]",5.00 to 6.00
5,"CCCS(=O)(=O)Nc1ccc(F)c(Nc2ncnc3ccc(-c4cccnc4F)cc23)c1 [compound 6, N-(4-fluoro-3-(6-(2-fluoropyridin-3-yl)-quinazolin-4-ylamino)phenyl)propane-1-sulfonamide]",5.00 to 6.00
6,"CCCS(=O)(=O)Nc1ccc(F)c(Nc2ncnc3ccc(-c4ccc[nH]c4=O)cc23)c1F [compound 26, N-(2,4-difluoro-3-(6-(2-oxo-1,2-dihydropyridin-3-yl)quinazolin-4-ylamino)phenyl)propane-1-sulfonamide]",5.00 to 6.00
7,"CS(=O)(=O)Nc1ccc(F)c(Nc2ncnc3ccc(-c4cccnc4F)cc23)c1F [compound 10, N-(2,4-difluoro-3-(6-(2-fluoropyridin-3-yl)quinazolin-4-ylamino)phenyl)methanesulfonamide]",5.00 to 6.00
8,"CCCS(=O)(=O)Nc1c(F)ccc(Nc2ncnc3ccc(-c4ccncc4)cc23)c1F [compound 17, N-(2,6-difluoro-3-(6-(pyridin-4-yl)quinazolin-4-ylamino)phenyl)propane-1-sulfonamide]",5.00 to 6.00

# More lines, now with the values ahead:
row,pIC50,Structure (SMILES)
1,6.00 to 6.52,"CCCS(=O)(=O)Nc1ccc(F)c(Nc2ncnc3ccc(-c4cccc(N)n4)cc23)c1F [compound 61, N-(3-(6-(6-aminopyridin-2-yl)quinazolin-4-ylamino)-2,4-difluorophenyl)propane-1-sulfonamide]"
2,5.00 to 6.00,"CCCS(=O)(=O)Nc1ccc(F)c(Nc2ncnc3ccc(-n4ccnc4)cc23)c1F [compound 43, N-(3-(6-(1H-imidazol-1-yl)quinazolin-4-ylamino)-2,4-difluorophenyl)propane-1-sulfonamide]"
3,5.00 to 6.00,"C#Cc1ccc2ncnc(Nc3c(F)ccc(NS(=O)(=O)CCC)c3F)c2c1 [compound 49, N-(3-(6-ethynylquinazolin-4-ylamino)-2,4-difluorophenyl)propane-1-sulfonamide]"
4,5.00 to 6.00,"CCCS(=O)(=O)Nc1ccc(F)c(Nc2ncnc3ccc(N4CCOCC4)cc23)c1F [compound 42, N-(2,4-difluoro-3-(6-morpholinoquinazolin-4-ylamino)phenyl)propane-1-sulfonamide]"
5,6.00 to 6.52,"CCCS(=O)(=O)Nc1ccc(F)c(Nc2ncnc3ccc(-c4ccc(OCCOC)nc4)cc23)c1F [compound 33, N-(2,4-difluoro-3-(6-(6-(2-methoxyethoxy)pyridin-3-yl)quinazolin-4-ylamino)phenyl)propane-1-sulfonamide]"
6,6.00 to 6.52,"CCCS(=O)(=O)Nc1ccc(F)c(Nc2ncnc3ccc(-c4cccnc4F)c(F)c23)c1F [compound 56, N-(2,4-difluoro-3-(5-fluoro-6-(2-fluoropyridin-3-yl)quinazolin-4-ylamino)phenyl)propane-1-sulfonamide]"
7,6.00 to 6.52,"CCCS(=O)(=O)Nc1ccc(F)c(Nc2ncnc3ccc(-c4cccnc4C#N)cc23)c1F [compound 64, N-(3-(6-(2-cyanopyridin-3-yl)quinazolin-4-ylamino)-2,4-difluorophenyl)propane-1-sulfonamide]"
8,6.00 to 6.52,"CCCS(=O)(=O)Nc1ccc(F)c(Nc2ncnc3ccc(-c4cccc(N5CCOCC5)n4)cc23)c1F [compound 41, N-(2,4-difluoro-3-(6-(6-morpholinopyridin-2-yl)quinazolin-4-ylamino)phenyl)propane-1-sulfonamide]"
9,6.00 to 6.52,"CCCS(=O)(=O)N(C)c1ccc(F)c(N(C)c2ncnc3ccc(-c4cccnc4F)cc23)c1F [compound 53, N-(2,4-difluoro-3-((6-(2-fluoropyridin-3-yl)-quinazolin-4-yl)(methyl)amino)phenyl)-N-methylpropane-1-sulfonamide]"
10,6.00 to 6.52,"CCCS(=O)(=O)Nc1ccc(F)c(Nc2ncnc3ccc(-c4cnc(N)c(C)c4)cc23)c1F [compound 67, N-(3-(6-(6-amino-5-methylpyridin-3-yl)quinazolin-4-ylamino)-2,4-difluorophenyl)propane-1-sulfonamide]"
11,6.00 to 6.52,"CCCS(=O)(=O)Nc1ccc(F)c(Nc2ncnc3ccc(-c4cnc(OC)c(N)c4)cc23)c1F [compound 60, N-(3-(6-(5-amino-6-methoxypyridin-3-yl)quinazolin-4-ylamino)-2,4-difluorophenyl)propane-1-sulfonamide]"
12,6.00 to 6.52,"CCCS(=O)(=O)Nc1ccc(F)c(Oc2ncnc3ccc(-c4cccnc4F)cc23)c1F [compound 34, N-(2,4-difluoro-3-(6-(2-fluoropyridin-3-yl)-quinazolin-4-yloxy)phenyl)propane-1-sulfonamide]"
13,6.00 to 6.52,"CCCS(=O)(=O)Nc1ccc(F)c(Nc2ncnc3ccc(-c4cncc(C(F)(F)F)c4)cc23)c1F [compound 65, N-(2,4-difluoro-3-(6-(5-(trifluoromethyl)pyridin-3-yl)quinazolin-4-ylamino)phenyl)propane-1-sulfonamide]"

# Same assay, conditions: given as bound; 8 μM ATP; read-out: IC50 against B-Raf kinase
row,Structure (SMILES),pIC50
1,"CCCS(=O)(=O)Nc1c(F)ccc(Nc2ncnc3ccc(-c4cccnc4F)cc23)c1F [compound 16, N-(2,6-difluoro-3-(6-(2-fluoropyridin-3-yl)quinazolin-4-ylamino)phenyl)propane-1-sulfonamide]",< 5.00
2,"CCCS(=O)(=O)Nc1cc(Nc2ncnc3ccc(-c4cccnc4F)cc23)c(F)cc1F [compound 11, N-(2,4-difluoro-5-(6-(2-fluoropyridin-3-yl)-quinazolin-4-ylamino)phenyl)propane-1-sulfonamide]",< 5.00
3,"CCCS(=O)(=O)Nc1ccc(F)c(Nc2ncnc3ccc(-c4cccnc4)cc23)c1F [compound 5, N-(2,4-difluoro-3-(6-(pyridin-3-yl)-quinazolin-4-ylamino)phenyl)propane-1-sulfonamide]",< 5.00
4,"CCCS(=O)(=O)Nc1ccc(F)c(Nc2ncnc3cc(NCCN(C)C)c(-c4ccncc4)cc23)c1F [compound 22, N-(3-(7-(2-(dimethylamino)ethylamino)-6-(pyridin-4-yl)quinazolin-4-ylamino)-2,4-difluorophenyl)propane-1-sulfonamide]",< 5.00

# Now from value to compound:
row,pIC50,Structure (SMILES)
1,< 5.00,"CCCS(=O)(=O)Oc1ccc(F)c(Nc2ncnc3ccc(-c4cccnc4F)cc23)c1F [compound 40, 2,4-difluoro-3-(6-(2-fluoropyridin-3-yl)quinazolin-4-ylamino)phenyl propane-1-sulfonate]"
2,< 5.00,"CCCS(=O)(=O)Nc1ccc(F)c(Nc2ncnc3ccc(-c4c[nH]nn4)cc23)c1F [compound 52, N-(3-(6-(1H-1,2,3-triazol-4-yl)quinazolin-4-ylamino)-2,4-difluorophenyl)propane-1-sulfonamide]"
3,< 5.00,"O=S1(=O)CCCN1c1ccc(F)c(Nc2ncnc3ccc(-c4cccnc4F)cc23)c1F [compound 55, N-(2,4-difluoro-3-(6-(2-fluoropyridin-3-yl)quinazolin-4-ylamino)phenyl)propanesultam]"
4,< 5.00,"CCCS(=O)(=O)Nc1ccc(F)c(Nc2ncnc3ccc(-n4cnc5ccccc54)cc23)c1F [compound 47, N-(3-(6-(1H-benzo[d]imidazol-1-yl)-quinazolin-4-ylamino)-2,4-difluorophenyl)propane-1-sulfonamide]"
